From patent publication US12275731B2, “Azaindole inhibitors of wild-type and mutant forms of LRRK2” (DANA-FARBER CANCER INSTITUTE, INC., priority 2018, dated 2025)

Experiments:
Assay in all cases: KinomeScan profiling
Type in all cases: binding
TGFBR1 = target: T1, TGFBR1 (Homo sapiens, UniProt P36897); conditions: TGFBR1, 1 μM; read-out: % control
T1 sequence (P36897 34-503): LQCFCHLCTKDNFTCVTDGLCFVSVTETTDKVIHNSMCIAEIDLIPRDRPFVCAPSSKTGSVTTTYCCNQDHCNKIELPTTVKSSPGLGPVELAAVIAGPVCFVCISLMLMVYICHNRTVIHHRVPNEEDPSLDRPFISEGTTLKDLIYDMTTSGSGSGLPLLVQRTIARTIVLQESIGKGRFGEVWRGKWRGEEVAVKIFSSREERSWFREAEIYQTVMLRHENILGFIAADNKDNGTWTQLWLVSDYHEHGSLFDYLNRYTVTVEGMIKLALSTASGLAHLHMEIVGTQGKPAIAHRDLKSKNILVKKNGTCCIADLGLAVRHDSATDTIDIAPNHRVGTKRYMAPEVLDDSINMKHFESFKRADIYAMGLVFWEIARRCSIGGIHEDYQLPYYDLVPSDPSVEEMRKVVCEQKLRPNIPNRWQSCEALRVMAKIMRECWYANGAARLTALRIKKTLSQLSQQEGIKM
In short: (§1)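 Normalised RLU (% control; DMSO 100%, positive control 0%) was measured for compounds dosed at 1 μM over 468 kinases, active cut-off <35%.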

AKT3 = target: T2, AKT3 (Homo sapiens, UniProt Q9Y243); conditions: AKT3, 1 μM; read-out: % control
T2 construct: purchased KinomeScan®
T2 sequence (Q9Y243 whole entry): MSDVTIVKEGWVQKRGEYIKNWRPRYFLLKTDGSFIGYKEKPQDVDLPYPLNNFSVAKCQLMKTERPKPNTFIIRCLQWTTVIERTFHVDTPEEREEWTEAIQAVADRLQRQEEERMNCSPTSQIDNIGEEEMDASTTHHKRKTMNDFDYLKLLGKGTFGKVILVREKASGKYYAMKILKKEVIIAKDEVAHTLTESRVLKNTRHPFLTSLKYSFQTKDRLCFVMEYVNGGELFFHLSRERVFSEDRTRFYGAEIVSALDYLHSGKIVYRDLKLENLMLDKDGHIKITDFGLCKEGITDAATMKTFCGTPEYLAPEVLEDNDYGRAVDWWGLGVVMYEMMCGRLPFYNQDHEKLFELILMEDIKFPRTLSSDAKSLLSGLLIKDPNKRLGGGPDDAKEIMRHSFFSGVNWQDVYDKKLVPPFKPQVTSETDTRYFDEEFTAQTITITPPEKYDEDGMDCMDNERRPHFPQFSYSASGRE
In short: as §1

EPHA6 = target: T3, EPHA6 (Homo sapiens, UniProt Q9UF33); conditions: EPHA6, 1 μM; read-out: % control
T3 sequence (Q9UF33 23-1036): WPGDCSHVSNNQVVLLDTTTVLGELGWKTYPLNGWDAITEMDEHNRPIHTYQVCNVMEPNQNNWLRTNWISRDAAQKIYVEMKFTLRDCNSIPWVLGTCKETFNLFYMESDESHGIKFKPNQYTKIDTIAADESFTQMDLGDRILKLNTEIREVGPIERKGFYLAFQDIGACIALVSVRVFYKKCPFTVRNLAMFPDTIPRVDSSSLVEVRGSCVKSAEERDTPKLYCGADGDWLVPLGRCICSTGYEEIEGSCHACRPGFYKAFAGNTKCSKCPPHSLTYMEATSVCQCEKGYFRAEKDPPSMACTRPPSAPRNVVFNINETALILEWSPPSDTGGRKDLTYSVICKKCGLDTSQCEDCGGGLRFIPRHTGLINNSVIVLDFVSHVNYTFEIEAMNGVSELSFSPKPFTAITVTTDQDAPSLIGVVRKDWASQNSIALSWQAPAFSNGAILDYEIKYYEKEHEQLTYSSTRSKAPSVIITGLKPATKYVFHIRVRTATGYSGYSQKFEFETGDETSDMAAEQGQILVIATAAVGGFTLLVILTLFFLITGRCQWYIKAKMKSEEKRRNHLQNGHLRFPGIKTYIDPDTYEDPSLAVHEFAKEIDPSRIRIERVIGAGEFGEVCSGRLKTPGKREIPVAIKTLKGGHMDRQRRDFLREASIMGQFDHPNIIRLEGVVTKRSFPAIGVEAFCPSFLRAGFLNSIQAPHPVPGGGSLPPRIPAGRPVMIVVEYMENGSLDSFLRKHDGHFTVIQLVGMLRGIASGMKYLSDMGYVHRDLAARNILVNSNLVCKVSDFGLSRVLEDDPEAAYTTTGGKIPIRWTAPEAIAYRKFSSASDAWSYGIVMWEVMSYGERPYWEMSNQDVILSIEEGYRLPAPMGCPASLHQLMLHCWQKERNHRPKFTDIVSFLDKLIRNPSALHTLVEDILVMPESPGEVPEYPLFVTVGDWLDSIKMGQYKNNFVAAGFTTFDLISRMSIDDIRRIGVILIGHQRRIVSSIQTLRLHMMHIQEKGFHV
In short: as §1

NEK4 = NEK4 (Homo sapiens, UniProt P51957); conditions: NEK4, 1 μM; read-out: % control
NEK4, sequence (P51957 whole entry): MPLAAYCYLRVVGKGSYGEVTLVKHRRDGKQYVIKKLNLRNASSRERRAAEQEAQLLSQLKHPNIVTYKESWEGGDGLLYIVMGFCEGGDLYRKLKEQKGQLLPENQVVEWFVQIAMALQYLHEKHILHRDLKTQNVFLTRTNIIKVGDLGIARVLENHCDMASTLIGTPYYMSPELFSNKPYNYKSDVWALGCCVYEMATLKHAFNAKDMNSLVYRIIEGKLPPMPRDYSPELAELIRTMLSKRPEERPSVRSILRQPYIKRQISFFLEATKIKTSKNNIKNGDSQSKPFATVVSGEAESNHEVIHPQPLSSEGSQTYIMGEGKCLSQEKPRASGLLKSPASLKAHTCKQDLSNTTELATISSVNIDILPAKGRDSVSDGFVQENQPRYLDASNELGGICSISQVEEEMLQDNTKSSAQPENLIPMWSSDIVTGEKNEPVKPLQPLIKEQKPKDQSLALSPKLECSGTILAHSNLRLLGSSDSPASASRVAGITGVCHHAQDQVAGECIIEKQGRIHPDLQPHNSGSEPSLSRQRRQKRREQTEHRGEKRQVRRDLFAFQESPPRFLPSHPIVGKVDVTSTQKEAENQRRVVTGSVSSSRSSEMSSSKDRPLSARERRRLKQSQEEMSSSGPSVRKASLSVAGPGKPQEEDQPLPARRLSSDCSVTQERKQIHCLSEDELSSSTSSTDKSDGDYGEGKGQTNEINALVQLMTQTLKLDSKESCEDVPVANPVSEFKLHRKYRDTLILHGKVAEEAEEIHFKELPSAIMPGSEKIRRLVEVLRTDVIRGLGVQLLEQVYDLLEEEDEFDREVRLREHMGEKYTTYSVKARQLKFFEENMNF
In short: as §1

FLT3(D835H) = target: T4, FLT3(D835H) (Homo sapiens, UniProt P36888, D835H); conditions: read-out: % control
T4 sequence (P36888 27-993 D835H): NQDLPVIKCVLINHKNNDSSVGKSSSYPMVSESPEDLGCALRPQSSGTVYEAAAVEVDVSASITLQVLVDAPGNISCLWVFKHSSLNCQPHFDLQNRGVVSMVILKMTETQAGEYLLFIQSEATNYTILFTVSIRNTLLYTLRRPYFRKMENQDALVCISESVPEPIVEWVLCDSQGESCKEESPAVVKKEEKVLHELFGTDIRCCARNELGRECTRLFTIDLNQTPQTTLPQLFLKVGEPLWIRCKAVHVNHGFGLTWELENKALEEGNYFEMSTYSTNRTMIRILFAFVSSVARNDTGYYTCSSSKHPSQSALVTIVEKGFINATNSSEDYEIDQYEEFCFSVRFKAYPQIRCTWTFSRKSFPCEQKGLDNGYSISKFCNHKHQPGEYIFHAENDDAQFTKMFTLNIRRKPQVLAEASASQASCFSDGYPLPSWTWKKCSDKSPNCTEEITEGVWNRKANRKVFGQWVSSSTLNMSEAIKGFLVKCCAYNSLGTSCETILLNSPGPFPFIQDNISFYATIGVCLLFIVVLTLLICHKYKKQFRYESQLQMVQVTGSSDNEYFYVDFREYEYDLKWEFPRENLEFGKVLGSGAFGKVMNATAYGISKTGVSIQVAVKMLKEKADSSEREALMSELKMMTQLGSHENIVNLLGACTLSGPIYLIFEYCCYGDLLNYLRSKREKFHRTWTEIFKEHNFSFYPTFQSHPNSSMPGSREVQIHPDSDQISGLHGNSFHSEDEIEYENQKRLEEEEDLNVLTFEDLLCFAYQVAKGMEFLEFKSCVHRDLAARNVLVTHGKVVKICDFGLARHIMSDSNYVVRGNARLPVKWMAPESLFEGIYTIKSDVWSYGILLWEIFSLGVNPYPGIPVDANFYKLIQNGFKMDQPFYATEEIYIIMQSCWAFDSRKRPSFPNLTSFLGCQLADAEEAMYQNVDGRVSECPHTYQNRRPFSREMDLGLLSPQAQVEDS
In short: as §1

DYRK1A = DYRK1A (Homo sapiens, UniProt Q13627); conditions: read-out: % control
In short: as §1

| Structure (SMILES) | remaining binding at 1 µM (TGFBR1) [%] | remaining binding at 1 µM (AKT3) [%] | remaining binding at 1 µM (EPHA6) [%] | remaining binding at 1 µM (NEK4) [%] | remaining binding at 1 µM (FLT3(D835H)) [%] | remaining binding at 1 µM (DYRK1A) [%] |
| --- | --- | --- | --- | --- | --- | --- |
| CNc1c(-c2cnn([C@H]3CCN(C(C)=O)C[C@@H]3F)c2)cnc2[nH]cc(Cl)c12 [Compound 77, 1-((3S,4S)-4-(4-(3-chloro-4-(methylamino)-1H-pyrrolo[2,3-b]pyridin-5-yl)-1H-pyrazol-1-yl)-3-fluoropiperidin-1-yl)ethan-1-one] | 60 | 95 | 93 | 82 | 7.9 | 58 |
| CNc1c(-c2ccc(C(=O)N3CCC(N4CCOCC4)CC3)cc2)cnc2[nH]cc(Cl)c12 [Compound 96, (4-(3-chloro-4-(methylamino)-1H-pyrrolo[2,3-b]pyridin-5-yl)phenyl)(4-morpholinopiperidin-1-yl)methanone] | 56 | 100 | 98 | 65 | 9.9 | 69 |
| O=C(c1ccc(-c2cnc3[nH]cc(Cl)c3c2NC2CCCC2)cc1)N1CCC(N2CCOCC2)CC1 [Compound 101, (4-(3-chloro-4-(cyclopentylamino)-1H-pyrrolo[2,3-b]pyridin-5-yl)phenyl)(4-morpholinopiperidin-1-yl)methanone] | 100 | 99 | 43 | 100 | 41 | 4 |
